EP0021678B1, “1-Sulpho-2-oxoazetidine derivatives, their production and pharmaceutical compositions thereof” (Takeda Chemical Industries, Ltd., priority 1979, dated 1981)
Where two headings read alike, the source gives them in different places.

Key:
Assay in all cases: Anti-bacterial test, minimum inhibitory concentration on agar
Type in all cases: cell-based
[1] = test system: Proteus vulgaris IFO 3988; conditions: Proteus vulgaris IFO 3988, medium TSA; for MIC: IFO3988, read-out: Minimum inhibitory concentration
Text: (§1) The compound (I) thus obtained is useful as a drug, being active against certain gram-positive and gram-negative bacteria. By way of example, the compounds are active against the following micro-organisms.
(§2) The media and compounds employed in the anti-bacterial test are as follows: • Media: • TSA = Trypticase soy agar • [Baltimore Biologicals (U.S.A.)] • B-TSA = Blood trypticase soy agar • Compounds: • Compound A = Sodium 3-[2-(2-amino-4-thiazolyl)-2-methoxyiminoacetamido]-2-oxo-azetidine-1-sulphonate • Compound B = Sodium 3-[D(-)-N-(4-ethyl-2,3-dioxo-1-piperazinocarbonyl)-phenyl-glycin- amido]-2-oxoazetidine-1-sulphonate • Compound C = Sodium 3-[D(-)-N-(4-ethyl-2,3-dioxo-1-piperazinocarbonyl)phenylglycinamido]-3-methoxy-2-oxoazetidine-1-sulphonate • Compound D = Sodium 3-[2-(4-ethyl-2,3-dioxo-1-piperazinocarboxamido)-2-(2-amino-4-thiazolyl)-acetamido]-2-oxoazetidine-1-sulphonate • Compound E = Sodium 3-[DL-2-(4-ethyl-2,3-dioxo-1-piperazinocarboxamido)-2-thienylacetamido]-2-oxoazetidine-1-sulphonate • Compound F = Sodium 3-[D-2-(4-ethyl-2,3-dioxo-1-piperazinocarboxamido)-2-thienylacetamido]-2-oxoazetidine-1-sulphonate • Compound G = Sodium 3-[D-2-(4-n-octyl-2,3-dioxo-1-piperazinocarboxamido)-2-phenylacetamido]-2-oxoazetidine-1-sulphonate • Compound H = Sodium 3-[2-(4-n-octyl-2,3-dioxo-1-piperazinocarboxamido)-2-(2-amino-4-thiazolyl)-acetamido]-2-oxoazetidine-1-sulphonate • Compound I = Sodium 3-[D-2-[(2-oxo-3-furfurylideneaminoimidazolidin-1-yl)-carboxamido]-2-phenylacetamido]-2-oxoazetidine-1-sulphonate • Compound J = Sodium 3-[2-(4-n-octyl-2,3-dioxo-1-piperazinocarboxamido)-2-thienylacetamido]-2-oxoazetidine-1-sulphonate • Compound K = Sodium 3-[D-2-[[2-oxo-3-(thiophen-2-aidoimino)-imidazolidin-1-yl]-carboxamido]-2-phenylacetamido]-2-oxoazetidine-1-sulphonate • Compound L = Sodium 3-[2-[(2-oxo-3-furfurylideneaminoimidazolidin-1-yl)-carboxamido]-2-thienylacetamido]-2-oxoazetidine-1-sulphonate

[2] = test system: Staphylococcus aureus FDA209P; conditions: Staphylococcus aureus FDA209P; for MIC: Staphylococcus aureus, FDA209P, read-out: Minimum inhibitory concentration
Text: as §1, §2

[3] = test system: Streptococcus pyogenes S—8; conditions: Streptococcus pyogenes S—8, medium B—TSA; for MIC: read-out: Minimum inhibitory concentration
Text: as §1, §2

[4] = test system: Streptococcus pneumoniae Type I; conditions: for MIC: read-out: Minimum inhibitory concentration
Text: as §1, §2

[5] = test system: Proteus mirabilis IFO 3849; conditions: Proteus mirabilis IFO 3849, medium TSA; for MIC: IFO3849, read-out: Minimum inhibitory concentration
Text: as §1, §2

[6] = test system: Bordetella bronchiseptica Sagami; conditions: Bordetella bronchiseptica Sagami, medium B—TSA; for MIC: read-out: Minimum inhibitory concentration
Text: as §1, §2

[7] = test system: Citrobacter freundii IFO 12681; conditions: Citrobacter freundii IFO 12681, medium TSA; for MIC: IFO12681, read-out: Minimum inhibitory concentration
Text: as §1, §2

[8] = test system: Serratia marcescens IFO 12648; conditions: Serratia marcescens IFO 12648, medium TSA; for MIC: IFO12648, read-out: Minimum inhibitory concentration
Text: as §1, §2

[9] = test system: Pseudomonas aeruginosa IFO 3455
Text: as §1, §2

[10] = test system: Proteus morganii IFO 3168; conditions: Proteus morganii IFO 3168, medium TSA; for MIC: Morganella morganii, IFO3168, read-out: Minimum inhibitory concentration
Text: as §1, §2

[11] = test system: Acinetobacter calcoaceticus IFO 13006; conditions: Acinetobacter calcoaceticus IFO 13006, medium TSA; for MIC: IFO13006, read-out: Minimum inhibitory concentration
Text: as §1, §2

Candida albicans TA = conditions: Candida albicans TA, medium TSA; for MIC: read-out: Minimum inhibitory concentration
Text: as §1, §2

[12] = test system: Staphylococcus aureus 1840; conditions: Staphylococcus aureus 1840, medium TSA; for MIC: read-out: Minimum inhibitory concentration
Text: as §1, §2

Klebsiella pneumoniae DT = conditions: Klebsiella pneumoniae DT, medium TSA; for MIC: read-out: Minimum inhibitory concentration
Text: as §1, §2

[13] = test system: Streptococcus pyogenes E—14; conditions: for MIC: read-out: Minimum inhibitory concentration
Text: as §1, §2

Escherichia coli O—111 = conditions: medium TSA
Text: as §1, §2

[14] = test system: Staphylococcus aureus 308A—1; conditions: for MIC: Staphylococcus aureus, read-out: Minimum inhibitory concentration
Text: as §1, §2

[15] = test system: Pseudomonas aeruginosa U 31; conditions: Pseudomonas aeruginosa U 31, medium TSA; for MIC: U31, read-out: Minimum inhibitory concentration
Text: as §1, §2

[16] = test system: Streptococcus faecium IFO 3128; conditions: Streptococcus faecium IFO 3128, medium B—TSA; for MIC: Enterococcus faecium, IFO3128, read-out: Minimum inhibitory concentration
Text: as §1, §2

[17] = test system: Enterobacter cloacae IFO 12937; conditions: Enterobacter cloacae IFO 12937, medium TSA; for MIC: IFO12937, read-out: Minimum inhibitory concentration
Text: as §1, §2

[18] = test system: Streptococcus mitis America; conditions: for MIC: read-out: Minimum inhibitory concentration
Text: as §1, §2

Escherichia coli T-7 = conditions: for MIC: T7, medium TSA
Text: as §1, §2

[19] = test system: Corynebacterium diphtheriae Toronto; conditions: Corynebacterium diphtheriae Toronto, medium B—TSA; for MIC: read-out: Minimum inhibitory concentration
Text: as §1, §2

[20] = test system: Escherichia coli NIHJ JC—2; conditions: Escherichia coli NIHJ JC—2, medium TSA; for MIC: read-out: Minimum inhibitory concentration
Text: as §1, §2

[21] = Streptococcus pneumoniae Type I, medium B—TSA
[22] = Streptococcus pyogenes E—14, medium B—TSA
[23] = Streptococcus mitis America, medium B—TSA

`O=C(NC1CN(S(=O)(=O)O)C1=O)[C@H](NC(=O)N1CCN(N=Cc2ccco2)C1=O)c1ccccc1` (stereo partly drawn) [Compound I, Sodium 3-[D-2-[(2-oxo-3-furfurylideneaminoimidazolidin-1-yl)-carboxamido]-2-phenylacetamido]-2-oxoazetidine-1-sulphonate] was tested. Which MIC [1] did it give?
Its MIC is 0.2 µg/mL.

And the MIC ([2]; medium B—TSA)?
The MIC was 6.25 µg/mL.

What about the MIC ([2]; medium TSA) of the same compound?
Its MIC is 6.25 µg/mL.

And the MIC [3]?
The MIC was 0.78 µg/mL.

And the MIC [4, 21]?
Its MIC is 1.56 µg/mL.

And the MIC [5]?
The MIC was 1.56 µg/mL.

What about the MIC [6] of the same compound?
The MIC was over 100 µg/mL.

What about the MIC [7] of the same compound?
The MIC was 6.25 µg/mL.

What about the MIC [8] of the same compound?
The MIC was 1.56 µg/mL.

And the MIC ([9]; Pseudomonas aeruginosa, IFO3455, read-out: Minimum inhibitory concentration)?
Its MIC is 3.13 µg/mL.

What about the MIC [10] of the same compound?
Its MIC is 12.5 µg/mL.

And the MIC [11]?
Its MIC is 25 µg/mL.

What about the MIC (Candida albicans TA) of the same compound?
The MIC was over 100 µg/mL.

And the MIC [12]?
Its MIC is 50 µg/mL.

And the MIC (Klebsiella pneumoniae DT)?
Its MIC is 0.2 µg/mL.

What about the MIC [13, 22] of the same compound?
Its MIC is 0.39 µg/mL.

And the MIC (Escherichia coli O—111)?
The MIC was 3.13 µg/mL.

And the MIC [14]?
The MIC was 3.13 µg/mL.

And the MIC [15]?
The MIC was over 100 µg/mL.

What about the MIC [16] of the same compound?
The MIC was over 100 µg/mL.

What about the MIC [17] of the same compound?
Its MIC is 25 µg/mL.

What about the MIC ([18]; Streptococcus mitis) of the same compound?
Its MIC is 3.13 µg/mL.

And the MIC (Escherichia coli T-7)?
The MIC was over 100 µg/mL.

And the MIC [19]?
The MIC was 0.78 µg/mL.

What about the MIC [20] of the same compound?
Its MIC is 1.56 µg/mL.

`CCN1CCN(C(=O)N[C@H](C(=O)NC2CN(S(=O)(=O)[O-])C2=O)c2cccs2)C(=O)C1=O.[Na+]` (stereo partly drawn) [Compound F, Sodium 3-[D-2-(4-ethyl-2,3-dioxo-1-piperazinocarboxamido)-2-thienylacetamido]-2-oxoazetidine-1-sulphonate] was tested. Which Minimum inhibitory concentration [1] did it give?
The Minimum inhibitory concentration was under 0.1 µg/mL.

What about the Minimum inhibitory concentration ([2]; medium B—TSA) of the same compound?
The Minimum inhibitory concentration was 6.25 µg/mL.

What about the Minimum inhibitory concentration ([2]; medium TSA) of the same compound?
The Minimum inhibitory concentration was 6.25 µg/mL.

And the Minimum inhibitory concentration [3]?
Its Minimum inhibitory concentration is 3.13 µg/mL.

What about the Minimum inhibitory concentration [4, 21] of the same compound?
Its Minimum inhibitory concentration is 6.25 µg/mL.

And the Minimum inhibitory concentration [5]?
The Minimum inhibitory concentration was 0.78 µg/mL.

And the Minimum inhibitory concentration [6]?
Its Minimum inhibitory concentration is over 100 µg/mL.

And the Minimum inhibitory concentration [7]?
The Minimum inhibitory concentration was 1.56 µg/mL.

And the Minimum inhibitory concentration [8]?
The Minimum inhibitory concentration was 1.56 µg/mL.

And the Minimum inhibitory concentration ([9]; Pseudomonas aeruginosa IFO 3455, medium TSA)?
Its Minimum inhibitory concentration is 6.25 µg/mL.

And the Minimum inhibitory concentration [10]?
The Minimum inhibitory concentration was 12.5 µg/mL.

And the Minimum inhibitory concentration [11]?
The Minimum inhibitory concentration was 25 µg/mL.

And the Minimum inhibitory concentration (Candida albicans TA)?
The Minimum inhibitory concentration was over 100 µg/mL.

What about the Minimum inhibitory concentration [12] of the same compound?
Its Minimum inhibitory concentration is 25 µg/mL.

What about the Minimum inhibitory concentration (Klebsiella pneumoniae DT) of the same compound?
Its Minimum inhibitory concentration is 0.2 µg/mL.

And the Minimum inhibitory concentration [13, 22]?
Its Minimum inhibitory concentration is 3.13 µg/mL.

And the Minimum inhibitory concentration (Escherichia coli O—111)?
The Minimum inhibitory concentration was 0.2 µg/mL.

What about the Minimum inhibitory concentration ([14]; Staphylococcus aureus 308A—1, medium TSA) of the same compound?
The Minimum inhibitory concentration was 6.25 µg/mL.

What about the Minimum inhibitory concentration [15] of the same compound?
Its Minimum inhibitory concentration is over 100 µg/mL.

What about the Minimum inhibitory concentration [16] of the same compound?
The Minimum inhibitory concentration was over 100 µg/mL.

What about the Minimum inhibitory concentration [17] of the same compound?
The Minimum inhibitory concentration was 50 µg/mL.

And the Minimum inhibitory concentration [18, 23]?
Its Minimum inhibitory concentration is 25 µg/mL.

And the Minimum inhibitory concentration (Escherichia coli T-7; medium TSA)?
The Minimum inhibitory concentration was over 100 µg/mL.

What about the Minimum inhibitory concentration [19] of the same compound?
Its Minimum inhibitory concentration is 0.78 µg/mL.

What about the Minimum inhibitory concentration [20] of the same compound?
Its Minimum inhibitory concentration is 0.78 µg/mL.

With `CCCCCCCCN1CCN(C(=O)NC(C(=O)NC2CN(S(=O)(=O)O)C2=O)c2csc(N)n2)C(=O)C1=O` (stereo not drawn) [Compound H, Sodium 3-[2-(4-n-octyl-2,3-dioxo-1-piperazinocarboxamido)-2-(2-amino-4-thiazolyl)-acetamido]-2-oxoazetidine-1-sulphonate] as the compound, how does the MIC [1] read?
The MIC was 6.25 µg/mL.

And the MIC ([2]; medium B—TSA)?
The MIC was 12.5 µg/mL.

And the MIC ([2]; medium TSA)?
The MIC was 6.25 µg/mL.

What about the MIC [3] of the same compound?
The MIC was 1.56 µg/mL.

And the MIC ([4]; Streptococcus pneumoniae)?
The MIC was 3.13 µg/mL.

What about the MIC [5] of the same compound?
Its MIC is 25 µg/mL.

And the MIC [6]?
Its MIC is over 100 µg/mL.

And the MIC [7]?
Its MIC is 12.5 µg/mL.

What about the MIC [8] of the same compound?
The MIC was 12.5 µg/mL.

What about the MIC ([9]; IFO3455, Pseudomonas aeruginosa IFO 3455, medium TSA, read-out: Minimum inhibitory concentration) of the same compound?
Its MIC is 12.5 µg/mL.

And the MIC [10]?
The MIC was 6.25 µg/mL.

And the MIC [11]?
Its MIC is 50 µg/mL.

What about the MIC (Candida albicans TA) of the same compound?
Its MIC is over 100 µg/mL.

What about the MIC [12] of the same compound?
The MIC was 12.5 µg/mL.

And the MIC (Klebsiella pneumoniae DT)?
Its MIC is 12.5 µg/mL.

What about the MIC ([13]; Streptococcus pyogenes) of the same compound?
Its MIC is 3.13 µg/mL.

And the MIC (Escherichia coli O—111)?
The MIC was 3.13 µg/mL.

What about the MIC [14] of the same compound?
The MIC was 3.13 µg/mL.

And the MIC [15]?
Its MIC is 50 µg/mL.

What about the MIC [16] of the same compound?
Its MIC is over 100 µg/mL.

What about the MIC [17] of the same compound?
Its MIC is 50 µg/mL.

What about the MIC [18, 23] of the same compound?
The MIC was 25 µg/mL.

And the MIC (Escherichia coli T-7)?
Its MIC is over 100 µg/mL.

And the MIC [19]?
The MIC was 0.78 µg/mL.

And the MIC [20]?
Its MIC is 12.5 µg/mL.
